Test: xn = mol fraction of the nth substance listed
Settings: 101 kPa, Liquid; for mass density: Vibrating tube method

CCC(C)(C)O [2-methylbutan-2-ol] + CCO
Settings | kinematic viscosity [m2/s] | mass density [kg/m3]
293.15 K, x1 = 0.0268 | – | 790.6
293.15 K, x1 = 0.0549 | – | 791.5
293.15 K, x1 = 0.0845 | – | 792.2
293.15 K, x1 = 0.0915 | 1.64e-06 | –
293.15 K, x1 = 0.1156 | – | 793
293.15 K, x1 = 0.1484 | – | 793.9
293.15 K, x1 = 0.1753 | 1.76e-06 | –
293.15 K, x1 = 0.183 | – | 794.8
293.15 K, x1 = 0.2524 | 1.89e-06 | –
293.15 K, x1 = 0.2584 | – | 797
293.15 K, x1 = 0.3235 | 2.04e-06 | –
293.15 K, x1 = 0.3433 | – | 799.5
293.15 K, x1 = 0.3894 | 2.19e-06 | –
293.15 K, x1 = 0.4395 | – | 802.4
293.15 K, x1 = 0.4505 | 2.35e-06 | –
293.15 K, x1 = 0.5495 | – | 805.3
293.15 K, x1 = 0.5605 | 2.69e-06 | –
293.15 K, x1 = 0.6567 | 3.07e-06 | –
293.15 K, x1 = 0.6765 | – | 808.3
293.15 K, x1 = 0.7416 | 3.46e-06 | –
293.15 K, x1 = 0.817 | 3.86e-06 | –
293.15 K, x1 = 0.8247 | – | 811.2
293.15 K, x1 = 0.8844 | 4.26e-06 | –
293.15 K, x1 = 0.9451 | 4.67e-06 | –
293.15 K, x1 = 1 | 5.11e-06 | 813.9
298.15 K, x1 = 0.0268 | – | 786.4
298.15 K, x1 = 0.0549 | – | 787.3
298.15 K, x1 = 0.0845 | – | 788.2
298.15 K, x1 = 0.0915 | 1.5e-06 | –
298.15 K, x1 = 0.1156 | – | 789.1
298.15 K, x1 = 0.1484 | – | 790
298.15 K, x1 = 0.1753 | 1.62e-06 | –
298.15 K, x1 = 0.183 | – | 791
298.15 K, x1 = 0.2524 | 1.74e-06 | –
298.15 K, x1 = 0.2584 | – | 793.3
298.15 K, x1 = 0.3235 | 1.86e-06 | –
298.15 K, x1 = 0.3433 | – | 795.9
298.15 K, x1 = 0.3894 | 1.99e-06 | –
298.15 K, x1 = 0.4395 | – | 798.8
298.15 K, x1 = 0.4505 | 2.13e-06 | –
298.15 K, x1 = 0.5495 | – | 801.8
298.15 K, x1 = 0.5605 | 2.43e-06 | –
298.15 K, x1 = 0.6567 | 2.76e-06 | –
298.15 K, x1 = 0.6765 | – | 804.8
298.15 K, x1 = 0.7416 | 3.1e-06 | –
298.15 K, x1 = 0.817 | 3.44e-06 | –
298.15 K, x1 = 0.8247 | – | 807.7
298.15 K, x1 = 0.8844 | 3.78e-06 | –
298.15 K, x1 = 0.9451 | 4.12e-06 | –
298.15 K, x1 = 1 | 4.47e-06 | 810.5
303.15 K, x1 = 0.0268 | – | 782.1
303.15 K, x1 = 0.0549 | – | 783.2
303.15 K, x1 = 0.0845 | – | 784.2
303.15 K, x1 = 0.0915 | 1.34e-06 | –
303.15 K, x1 = 0.1156 | – | 785.2
303.15 K, x1 = 0.1484 | – | 786.2
303.15 K, x1 = 0.1753 | 1.44e-06 | –
303.15 K, x1 = 0.183 | – | 787.3
303.15 K, x1 = 0.2524 | 1.55e-06 | –
303.15 K, x1 = 0.2584 | – | 789.7
303.15 K, x1 = 0.3235 | 1.66e-06 | –
303.15 K, x1 = 0.3433 | – | 792.3
303.15 K, x1 = 0.3894 | 1.78e-06 | –
303.15 K, x1 = 0.4395 | – | 795.2
303.15 K, x1 = 0.4505 | 1.91e-06 | –
303.15 K, x1 = 0.5495 | – | 798.2
303.15 K, x1 = 0.5605 | 2.17e-06 | –
303.15 K, x1 = 0.6567 | 2.45e-06 | –
303.15 K, x1 = 0.6765 | – | 801.3
303.15 K, x1 = 0.7416 | 2.74e-06 | –
303.15 K, x1 = 0.817 | 3.04e-06 | –
303.15 K, x1 = 0.8247 | – | 804.2
303.15 K, x1 = 0.8844 | 3.33e-06 | –
303.15 K, x1 = 0.9451 | 3.62e-06 | –
303.15 K, x1 = 1 | 3.91e-06 | 807
308.15 K, x1 = 0.0268 | – | 777.8
308.15 K, x1 = 0.0549 | – | 778.9
308.15 K, x1 = 0.0845 | – | 780
308.15 K, x1 = 0.0915 | 1.23e-06 | –
308.15 K, x1 = 0.1156 | – | 781.1
308.15 K, x1 = 0.1484 | – | 782.3
308.15 K, x1 = 0.1753 | 1.33e-06 | –
308.15 K, x1 = 0.183 | – | 783.4
308.15 K, x1 = 0.2524 | 1.42e-06 | –
308.15 K, x1 = 0.2584 | – | 785.9
308.15 K, x1 = 0.3235 | 1.52e-06 | –
308.15 K, x1 = 0.3433 | – | 788.6
308.15 K, x1 = 0.3894 | 1.62e-06 | –
308.15 K, x1 = 0.4395 | – | 791.5
308.15 K, x1 = 0.4505 | 1.72e-06 | –
308.15 K, x1 = 0.5495 | – | 794.6
308.15 K, x1 = 0.5605 | 1.95e-06 | –
308.15 K, x1 = 0.6567 | 2.19e-06 | –
308.15 K, x1 = 0.6765 | – | 797.6
308.15 K, x1 = 0.7416 | 2.43e-06 | –
308.15 K, x1 = 0.817 | 2.68e-06 | –
308.15 K, x1 = 0.8247 | – | 800.6
308.15 K, x1 = 0.8844 | 2.93e-06 | –
308.15 K, x1 = 0.9451 | 3.16e-06 | –
308.15 K, x1 = 1 | 3.39e-06 | 803.5
313.15 K, x1 = 0.0268 | – | 773.5
313.15 K, x1 = 0.0549 | – | 774.8
313.15 K, x1 = 0.0845 | – | 776
313.15 K, x1 = 0.0915 | 1.12e-06 | –
313.15 K, x1 = 0.1156 | – | 777.2
313.15 K, x1 = 0.1484 | – | 778.4
313.15 K, x1 = 0.1753 | 1.2e-06 | –
313.15 K, x1 = 0.183 | – | 779.6
313.15 K, x1 = 0.2524 | 1.29e-06 | –
313.15 K, x1 = 0.2584 | – | 782.2
313.15 K, x1 = 0.3235 | 1.37e-06 | –
313.15 K, x1 = 0.3433 | – | 784.9
313.15 K, x1 = 0.3894 | 1.46e-06 | –
313.15 K, x1 = 0.4395 | – | 787.9
313.15 K, x1 = 0.4505 | 1.55e-06 | –
313.15 K, x1 = 0.5495 | – | 790.9
313.15 K, x1 = 0.5605 | 1.74e-06 | –
313.15 K, x1 = 0.6567 | 1.94e-06 | –
313.15 K, x1 = 0.6765 | – | 794
313.15 K, x1 = 0.7416 | 2.14e-06 | –
313.15 K, x1 = 0.817 | 2.34e-06 | –
313.15 K, x1 = 0.8247 | – | 797.1
313.15 K, x1 = 0.8844 | 2.54e-06 | –
313.15 K, x1 = 0.9451 | 2.73e-06 | –
313.15 K, x1 = 1 | 2.91e-06 | 800
318.15 K, x1 = 0.0268 | – | 769.3
318.15 K, x1 = 0.0549 | – | 770.6
318.15 K, x1 = 0.0845 | – | 771.9
318.15 K, x1 = 0.0915 | 1.02e-06 | –
318.15 K, x1 = 0.1156 | – | 773.2
318.15 K, x1 = 0.1484 | – | 774.4
318.15 K, x1 = 0.1753 | 1.1e-06 | –
318.15 K, x1 = 0.183 | – | 775.7
318.15 K, x1 = 0.2524 | 1.18e-06 | –
318.15 K, x1 = 0.2584 | – | 778.4
318.15 K, x1 = 0.3235 | 1.25e-06 | –
318.15 K, x1 = 0.3433 | – | 781.2
318.15 K, x1 = 0.3894 | 1.33e-06 | –
318.15 K, x1 = 0.4395 | – | 784.2
318.15 K, x1 = 0.4505 | 1.41e-06 | –
318.15 K, x1 = 0.5495 | – | 787.3
318.15 K, x1 = 0.5605 | 1.57e-06 | –
318.15 K, x1 = 0.6567 | 1.73e-06 | –
318.15 K, x1 = 0.6765 | – | 790.5
318.15 K, x1 = 0.7416 | 1.9e-06 | –
318.15 K, x1 = 0.817 | 2.07e-06 | –
318.15 K, x1 = 0.8247 | – | 793.6
318.15 K, x1 = 0.8844 | 2.23e-06 | –
318.15 K, x1 = 0.9451 | 2.38e-06 | –
318.15 K, x1 = 1 | 2.52e-06 | 796.6
323.15 K, x1 = 0.0268 | – | 764.9
323.15 K, x1 = 0.0549 | – | 766.3
323.15 K, x1 = 0.0845 | – | 767.7
323.15 K, x1 = 0.0915 | 9.01e-07 | –
323.15 K, x1 = 0.1156 | – | 769.1
323.15 K, x1 = 0.1484 | – | 770.4
323.15 K, x1 = 0.1753 | 9.68e-07 | –
323.15 K, x1 = 0.183 | – | 771.8
323.15 K, x1 = 0.2524 | 1.03e-06 | –
323.15 K, x1 = 0.2584 | – | 774.6
323.15 K, x1 = 0.3235 | 1.09e-06 | –
323.15 K, x1 = 0.3433 | – | 777.5
323.15 K, x1 = 0.3894 | 1.16e-06 | –
323.15 K, x1 = 0.4395 | – | 780.5
323.15 K, x1 = 0.4505 | 1.22e-06 | –
323.15 K, x1 = 0.5495 | – | 783.7
323.15 K, x1 = 0.5605 | 1.35e-06 | –
323.15 K, x1 = 0.6567 | 1.49e-06 | –
323.15 K, x1 = 0.6765 | – | 787
323.15 K, x1 = 0.7416 | 1.62e-06 | –
323.15 K, x1 = 0.817 | 1.75e-06 | –
323.15 K, x1 = 0.8247 | – | 790.2
323.15 K, x1 = 0.8844 | 1.87e-06 | –
323.15 K, x1 = 0.9451 | 1.99e-06 | –
323.15 K, x1 = 1 | 2.09e-06 | 793.3

Source: the NIST ThermoML archive (doi:10.1021/je050416y)
